The supplement of paper PMC11451515

Experiments:
Assay in all cases: AUC of viability dose-response curve (% viability x log10 dose units); higher = less sensitive
Conditions in all cases: 48 h
[1] = system: NOMO1
Method in brief: (§1)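 Medium-adapted leukemia cells in 1536-well plates, at 500 or 1000 cells/well, were incubated for 48 h at 37°C with library compounds in DMSO at 11 threefold doses from 47 μM to 0.79 nM. CellTiter-Glo One luminescence normalised per plate to DMSO and cell-free wells was fitted with a four-parameter log-logistic model over log10 doses. Area under the curve was integrated from this fit by trapezoidal rule, with curves beyond full viability scaled and failed quality-control curves removed.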

[2] = system: P12-Ichikawa
Method in brief: as §1

[3] = system: SEM cells
Method in brief: as §1

[4] = RPMI 5 mM glucose + 10% dialyzed FBS

Structure (SMILES)	AUC of viability dose-response curve ([1]; HPLM + 10% dialyzed FBS)	AUC of viability dose-response curve ([1]; RPMI 5 mM glucose + 10% FBS)	AUC of viability dose-response curve [1, 4]	AUC of viability dose-response curve ([2]; HPLM + 10% dialyzed FBS)	AUC of viability dose-response curve ([2]; RPMI 5 mM glucose + 10% FBS)	AUC of viability dose-response curve [2, 4]	AUC of viability dose-response curve ([3]; HPLM + 10% dialyzed FBS)	AUC of viability dose-response curve ([3]; RPMI 5 mM glucose + 10% FBS)	AUC of viability dose-response curve [3, 4]
O=C1NC(O)CCN1[C@@H]1O[C@H](CO)[C@@H](O)[C@H]1O (some centres not stated)	435	459	457	456	437	467	463	443	465
COC(=O)[C@@H](N)CCCNC(=N)N[N+](=O)[O-]	467	427	461	452	462	452	426	444	432
CCNc1cc(NC2CCC(O)CC2)nc(Nc2ccc3c(ccn3Cc3ccccc3)c2)n1 (configuration not stated)	471	472	464	474	467	469	471	471	466
NC(=O)c1cccc(N)c1	471	454	465	452	451	454	436	384	442
N\C1=N\C2=C(N=C[N]2COC(CO)CO)C(=O)N1	445	449	448				444	387	449
CCOC1=CC(=CC=C1C/2=N/[C@@](C)(C3=CC=C(Cl)C=C3)[C@](C)(N2C(=O)N4CCN(CC4)CC(=O)N5CCOCC5)C6=CC=C(Cl)C=C6)C(C)(C)C				465	461	443	436	432	439
COC[C@H]1OC(=O)C2=COC3=C2[C@@]1(C)\C4=C(\[C@@H]5CC[C@H](O)[C@@]5(C)C[C@H]4OC(C)=O)C3=O	440	466	458						
CN(C)c1ccc(Nc2nc(N)n(C(=O)c3c(F)cccc3F)n2)cc1	452	465	459				396	361	370
COc1cccc2c1C(=O)c1c(O)c3c(c(O)c1C2=O)C[C@@](O)(C(C)=O)C[C@@H]3O[C@H]1C[C@H](N)[C@H](O)[C@H](C)O1	265	262	259	274	264	263	192	190	209
CC(C)C[C@H](NC(=O)[C@H](Cc1ccccc1)NC(=O)c1cnccn1)B(O)O	182	171	181	173	173	171	138	147	129
CC(C)(C)NC(=O)[C@H]1CC[C@H]2[C@@H]3CC[C@H]4NC(=O)\C=C/[C@]4(C)[C@H]3CC[C@]12C	382	365	383	421	421	450	449	457	459
O=C(CCc1ccc(O)cc1)c1c(O)cc(O)cc1O[C@@H]1O[C@H](CO)[C@@H](O)[C@H](O)[C@H]1O				428	405	408	454	426	412
Cc1c(C(=O)Nc2cccc(C(F)(F)F)c2)cc(-c2ccccc2)n1CCCN1CCOCC1	458	446	460	438	449	454	454	458	446
CNCC(O)C(O)C(O)C(O)CO.O=C(O)c1ccc(-c2cc3cccnc3c(-c3ccc4nonc4c3)n2)cc1	467	464	469	473	470	468	472	472	459
CC(=O)[C@H]1CC[C@H]2[C@@H]3CCC4=CC(=O)CC[C@]4(C)[C@H]3CC[C@]12C	454	447	433	465	455	465	432	470	456
CN(C)CCCNC(=O)c1ccc(-c2cc(O)c3ncccc3c2)cc1	458	434	463	467	459	450	443	442	445
CN[C@@H]1C[C@H]2O[C@@](C)([C@@H]1OC)n1c3ccccc3c3c4c(c5c6ccccc6n2c5c31)C(=O)N[C@H]4O	279	264	289	280	249	271	220	226	232
Cc1cc(Cl)ccc1OCCCC(=O)NO	438	428	444	400	380	336	411	418	403
Cc1ccc(C(=O)c2cc(O)c(O)c([N+](=O)[O-])c2)cc1	447	424	456	468	449	434	435	466	434
CCCCCCCCc1ccc(CCC(N)(CO)CO)cc1	353	433	401	432	407	429	441	452	454
Cc1[nH]c(/C=C2\C(=O)Nc3ccc([S+](=O)([O-])Cc4c(Cl)cccc4Cl)cc32)c(C)c1C(=O)N1CCC[C@@H]1CN1CCCC1	435	438	432	455	456	430	370	394	361
NC\1=N\C(=O)N(\C=C1)[C@H]\2[C@H](O)[C@H](O)C(=C2F)\CO	369	378	369	361	394	389	376	421	353
CN(C)c1ccc2cc(C(=O)N[C@@H](CCCNC(=N)CCl)C(=O)NCc3ccccc3)ccc2c1	443	447	451	451	446	449	450	434	444
N[C@@H](CC(=O)N1CCn2c(nnc2C(F)(F)F)C1)Cc1cc(F)c(F)cc1F	451	417	461	463	453	445	448	453	449

Structure (SMILES)	AUC of viability dose-response curve ([1]; HPLM + 10% dialyzed FBS)	AUC of viability dose-response curve ([1]; RPMI 5 mM glucose + 10% FBS)	AUC of viability dose-response curve [1, 4]	AUC of viability dose-response curve ([2]; HPLM + 10% dialyzed FBS)	AUC of viability dose-response curve ([2]; RPMI 5 mM glucose + 10% FBS)	AUC of viability dose-response curve [2, 4]	AUC of viability dose-response curve ([3]; HPLM + 10% dialyzed FBS)	AUC of viability dose-response curve ([3]; RPMI 5 mM glucose + 10% FBS)	AUC of viability dose-response curve [3, 4]
Nc1nc(OCc2ccccc2)c2nc[nH]c2n1	462	459	465	472	470	471	452	429	454
C[S+]([O-])c1ccc(-c2nc(-c3ccc(F)cc3)c(-c3ccncc3)[nH]2)cc1 (configuration not stated)	358	357	334	380	359	367	324	314	324
CN(C)CCN(Cc1ccc(Cl)cc1)c1ccccn1.Cl	419	430	418	462	410	391	404	456	452
CC(=O)O[C@@]12CO[C@@H]1C[C@H](O)[C@]3(C)[C@@H]2[C@H](OC(=O)C4=CC=CC=C4)[C@]5(O)C[C@H](OC(=O)C(O)[C@@H](NC(=O)OC(C)(C)C)C6=CC=CC=C6)C(=C(/[C@@H](O)C3=O)C5(C)C)/C (some centres not stated)	147	112	118	126	125	174	112	78.5	86.9
COC1=CC=C(C=C1)C2CC(=N/N2C3=CC=C(C=C3)[S+](N)([O-])=O)\C4=CC=CC=C4 (configuration not stated)	330	355	337	387	354	340	323	293	282
COC1(C[S+]([O-])c2ccccc2)CCN(CCc2c[nH]c3ccc(F)cc23)CC1 (configuration not stated)	418	469	460	455	408	451	445	471	456
CC(C)NCC(O)c1ccc(NS(C)(=O)=O)cc1 (configuration not stated)	460	447	461	464	472	457	466	447	468
NCC(=O)Nc1ccc(-n2nc(C(F)(F)F)cc2-c2ccc3c(ccc4ccccc43)c2)cc1	458	462	447				460	457	424
COc1cc([C@@H]2c3cc4c(cc3[C@@H](O[C@@H]3O[C@@H]5CO[C@@H](c6cccs6)O[C@H]5[C@H](O)[C@H]3O)[C@H]3COC(=O)[C@H]23)OCO4)cc(OC)c1O							329	319	284
Oc1cc(O)cc(/C=C/c2ccc(O)c(O)c2)c1	442	416	431	449	452	444	413	430	390
CCN(C)C(=O)Oc1cccc([C@H](C)N(C)C)c1	451	468	474	452	458	465	463	432	452
Cc1ccc(-c2ncn(-c3ccc(Nc4nccc(-c5cccc(N6CCOCC6)c5)n4)cc3)n2)cn1				259	244	235	229	226	217
O=C(CCCCCCC(=O)Nc1ccccc1)NO	406	412	427	378	368	367	370	372	369
C[C@@H]1C[C@H]2[C@@H]3CC\C4=C\C(=O)\C=C/[C@]4(C)[C@@]3(Cl)[C@@H](O)C[C@]2(C)[C@@]1(OC(=O)C5=CC=CO5)C(=O)CCl	442	454	451	313	265	234	245	236	222
OC1=CC=C(C=C1)\C2=C\C(=O)C3=C(O2)C=C(O)C=C3O	451	457	448	467	456	453	462	430	443
CC(C)(C)c1cc(C(=O)O)c(NC(=O)Nc2ccc3[nH]ncc3c2)s1	427	418	422	433	426	438	442	447	440
Cc1ncc([N+](=O)[O-])n1CCO	467	462	461	477	472	469	467	477	449
C[C@@H]1CC[C@@]2(OC1)OC1CC3C4CC=C5CC(O)CCC5(C)C4CCC3(C)C1[C@@H]2C (some centres not stated)	428	402	407	419	453	444	444	394	415
C=CCn1c(=O)c2cnc(Nc3ccc(N4CCN(C)CC4)cc3)nc2n1-c1cccc(C(C)(C)O)n1	310	338	316	336	362	354	299	301	270
CCCCN(CCCC)C(=O)CN1C[C@H](c2ccc3c(c2)OCO3)[C@@H](C(=O)O)[C@@H]1c1ccc(OC)cc1	457	470	464				408	427	432
CCN(CC)CCN1C(=O)\C(=N/C2=CC=CC=C12)CC3=CC=C(OC)C=C3	472	474	468	470	465	460			
CC1(C)CC(O)CC(C)(C)N1[O]	452	472	472	464	459	459			
O=C1CCc2ccc(OCCCCN3CCN(c4cccc(Cl)c4Cl)CC3)cc2N1	449	433	438	473	471	449			
COc1cc(N[S+](=O)([O-])c2ccc(N)cc2)nc(OC)n1	431	476	458	462	470	466			
